Activity calls are given as the source filed them. The calls are words filed in the database; no cut-off is given here.

Assay [1] in a line: Ratio of MIC90 for antimycobacterial activity against Mycobacterium tuberculosis H37Rv M33-1 harboring mmpL3 G1927A/V643M mutant to MIC90 for antimycobacterial activity against wild type Mycobacterium tuberculosis H37Rv ATCC 27294. In kind it is functional.
A short description of assay [2]: Ratio of MIC90 for antimycobacterial activity against Mycobacterium tuberculosis H37Rv M16-4 harboring mmpL3 T2051C/V684A mutant to MIC90 for antimycobacterial activity against wild type Mycobacterium tuberculosis H37Rv ATCC 27294. In kind it is functional.
Assay [3] in a line: Ratio of MIC90 for antimycobacterial activity against Mycobacterium tuberculosis H37Rv M16-3 harboring mmpL3 T2051G/V684G mutant to MIC90 for antimycobacterial activity against wild type Mycobacterium tuberculosis H37Rv ATCC 27294. Format: functional.
Assay [4] is described as follows: Ratio of MIC90 for antimycobacterial activity against Mycobacterium tuberculosis H37Rv M16-1 harboring mmpL3 T854C/V258A mutant to MIC90 for antimycobacterial activity against wild type Mycobacterium tuberculosis H37Rv ATCC 27294. In kind it is functional.
Assay [5] in a line: Ratio of MIC90 for antimycobacterial activity against Mycobacterium tuberculosis H37Rv M47-3 harboring mmpL3 Ins2128CAG/Ins710Q mutant to MIC90 for antimycobacterial activity against wild type Mycobacterium tuberculosis H37Rv ATCC 27294. In kind it is functional.
Assay [6] is described as follows: Ratio of MIC90 for antimycobacterial activity against Mycobacterium tuberculosis H37Rv M47-2 harboring mmpL3 A730T/I244F mutant to MIC90 for antimycobacterial activity against wild type Mycobacterium tuberculosis H37Rv ATCC 27294. In kind it is functional.
Assay [7] is described as follows: Ratio of MIC90 for antimycobacterial activity against Mycobacterium tuberculosis H37Rv M16-2 harboring mmpL3 G758A/G253E mutant to MIC90 for antimycobacterial activity against wild type Mycobacterium tuberculosis H37Rv ATCC 27294. Format: functional.
Assay [8] can be described thus: Ratio of MIC90 for antimycobacterial activity against Mycobacterium tuberculosis H37Rv M47-4 harboring mmpL3 G2041A/V681I mutant to MIC90 for antimycobacterial activity against wild type Mycobacterium tuberculosis H37Rv ATCC 27294. In kind it is functional.
Assay [9] is described as follows: Ratio of MIC90 for antimycobacterial activity against Mycobacterium tuberculosis H37Rv M16-5 harboring mmpL3 G758A/G253E mutant to MIC90 for antimycobacterial activity against wild type Mycobacterium tuberculosis H37Rv ATCC 27294. In kind it is functional.
Assay [10] is described as follows: Ratio of MIC90 for antimycobacterial activity against Mycobacterium tuberculosis H37Rv M47-1 harboring mmpL3 G2098A/A700T mutant to MIC90 for antimycobacterial activity against wild type Mycobacterium tuberculosis H37Rv ATCC 27294. Format: functional.
For assay [11], the system named is Mycobacterium tuberculosis. As to the kind of experiment: Antimycobacterial activity against Mycobacterium tuberculosis H37Rv M16-3 harboring V684G mutant assessed as inhibition of bacterial growth incubated for 7 days by broth dilution method. In kind it is functional, organism-based. The note with it: time 7.0 day. (In general: In broth dilution the organism is exposed to a series of concentrations in liquid medium.)

In assay [12] the test system is Mycobacterium tuberculosis. The assay is described as follows: Antimycobacterial activity against Mycobacterium tuberculosis H37Rv M47-3 harboring Ins710Q mutant assessed as inhibition of bacterial growth incubated for 7 days by broth dilution method. In kind it is functional, organism-based. The following applies: time 7.0 day.
The subject of assay [13] is Mycobacterium tuberculosis. The assay is described as follows: Antimycobacterial activity against Mycobacterium tuberculosis H37Rv M47-2 harboring I244F mutant assessed as inhibition of bacterial growth incubated for 7 days by broth dilution method. Format: functional, organism-based. The following applies: time 7.0 day.
In assay [14] the test system is Mycobacterium tuberculosis. The assay is described as follows: Antimycobacterial activity against Mycobacterium tuberculosis H37Rv M16-1 harboring V285A mutant assessed as inhibition of bacterial growth incubated for 7 days by broth dilution method. Format: functional, organism-based. The following applies: time 7.0 day.
In assay [15] the test system is Mycobacterium tuberculosis. As to the kind of experiment: Antimycobacterial activity against Mycobacterium tuberculosis H37Rv M47-1 harboring A700T mutant assessed as inhibition of bacterial growth incubated for 7 days by broth dilution method. In kind it is functional, organism-based. The note with it: time 7.0 day.
For assay [16], the system named is Mycobacterium tuberculosis. As to the kind of experiment: Antimycobacterial activity against Mycobacterium tuberculosis H37Rv M47-4 harboring V681I mutant assessed as inhibition of bacterial growth incubated for 7 days by broth dilution method. Format: functional, organism-based. The note with it: time 7.0 day.
Assay [17] relates to Mycobacterium tuberculosis. The assay is described as follows: Antimycobacterial activity against Mycobacterium tuberculosis H37Rv M33-1 harboring V643M mutant assessed as inhibition of bacterial growth incubated for 7 days by broth dilution method. In kind it is functional, organism-based. The note with it: time 7.0 day.
Assay [18] concerns Mycobacterium tuberculosis. The assay is described as follows: Antimycobacterial activity against Mycobacterium tuberculosis H37Rv M16-5 harboring G253E mutant assessed as inhibition of bacterial growth incubated for 7 days by broth dilution method. In kind it is functional, organism-based. The following applies: time 7.0 day.
Assay [19] has as its system Mycobacterium tuberculosis. As to the kind of experiment: Antimycobacterial activity against Mycobacterium tuberculosis H37Rv M16-4 harboring V684A mutant assessed as inhibition of bacterial growth incubated for 7 days by broth dilution method. The following applies: time 7.0 day. In kind it is functional, organism-based.

For `FC(F)(F)c1ccc2cc(CNC3CCCCCCC3)[nH]c2c1`, the Ratio in assay [1], in assay [2], in assay [3], in assay [4], in [5] and in [6] was 5 throughout. Moreover, the Ratio in assay [7], in [8], in assay [9] and in assay [10] was 5 throughout.

For the molecule `O=C(NC1CCCCCCC1)c1cc2ccccc2s1`, the outcome in assay [11], in assay [12], in [13], in assay [14], in assay [15] and in [16] was inactive. Further, the result in assay [17], in [18] and in assay [19] was inactive.

On to `O=C(NC1CCCCCCC1)c1cc2ccc(C(F)(F)F)cc2[nH]1`, for which the Ratio in [1], in assay [2], in [3], in [4], in [5] and in assay [6] was 5 each time. Moreover, the Ratio in [7], in assay [8], in [9] and in [10] was 5 throughout.

Turning to `c1ccc2[se]c(CNC3CCCCCCC3)cc2c1`, the result in assay [11], in [12], in [13], in assay [14], in [15] and in assay [16] was inactive. For the same molecule, the outcome in assay [17], in assay [18] and in assay [19] was inactive.

For the molecule `c1ccc2sc(CNC3CCCCCCC3)cc2c1`, the Ratio in [1], in [2], in assay [3], in [4], in assay [5] and in [6] was 5 throughout. Further, the Ratio in [7], in [8], in [9] and in assay [10] was 5 each time.

Take `O=C(NC1CCCCCCC1)c1cc2ccccc2[se]1`: the result in assay [11], in [12], in assay [13], in assay [14], in [15] and in assay [16] was inactive. The outcome in assay [17], in [18] and in assay [19] was inactive.

The record behind these values is ChEMBL document CHEMBL5226308, “Amide-Amine Replacement in Indole-2-carboxamides Yields Potent Mycobactericidal Agents with Improved Water Solubility” (ACS Med Chem Lett, 2021).
